1 molecule from patent US9145437B2, “Urea compounds” (Eli Lilly and Company, priority 2013, dated 2015) can be followed below.

Test [1] has as its target T1, mouse SGLT1 (Mus musculus, UniProt Q8C3K6).
T1 construct: expressed in transfected cells
T1 sequence (Q8C3K6 1-665): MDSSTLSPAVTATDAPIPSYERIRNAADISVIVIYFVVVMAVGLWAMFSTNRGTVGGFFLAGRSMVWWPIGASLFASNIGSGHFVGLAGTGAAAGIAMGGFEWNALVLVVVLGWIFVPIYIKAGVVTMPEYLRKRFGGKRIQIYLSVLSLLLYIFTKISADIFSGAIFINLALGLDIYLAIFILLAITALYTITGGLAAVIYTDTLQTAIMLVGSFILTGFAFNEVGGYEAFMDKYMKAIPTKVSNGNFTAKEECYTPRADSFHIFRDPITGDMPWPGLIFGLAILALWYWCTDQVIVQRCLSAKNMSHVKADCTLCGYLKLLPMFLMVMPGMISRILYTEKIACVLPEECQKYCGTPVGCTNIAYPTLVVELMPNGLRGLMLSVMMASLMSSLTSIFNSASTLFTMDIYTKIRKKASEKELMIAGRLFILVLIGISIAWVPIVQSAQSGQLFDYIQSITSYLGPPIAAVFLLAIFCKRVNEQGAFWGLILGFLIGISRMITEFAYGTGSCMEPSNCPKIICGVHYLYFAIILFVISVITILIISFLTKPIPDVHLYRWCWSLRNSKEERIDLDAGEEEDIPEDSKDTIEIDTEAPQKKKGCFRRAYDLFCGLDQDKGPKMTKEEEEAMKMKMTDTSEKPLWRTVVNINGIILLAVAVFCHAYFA
The experiment in a line: Sodium-dependent 14C-AMG uptake assay in CHO-K1 cells expressing mouse SGLT1. The test is classed as cell-based. As to conditions: n=5. An excerpt:
(§1) The cDNA encoding human SGLT1 (slc5al, NM_000343) and mouse SGLT1 (slc5al, NM_019810.4) are purchased from Openbiosystems, Invitrogen and Openbiosystems, respectively. The cDNA is cloned into pcDNA3.1+ for mammalian expression and is stably transfected into Chinese hamster ovary (CHO)-K1 cells using standard mammalian transfection procedures. An SGLT-expressing sub-clone of each over-expressing cell line is selected based on resistance to neomycin (Geneticin, Invitrogen) and activity in the ^14C-α-methyl-D-glucopyranoside (^14C-AMG) uptake assay (see below). Stable SGLT-expressing cells are maintained using standard cell culture techniques.
(§2) The SGLT activity is measured as sodium-dependent ^14C-AMG uptake in the above cell lines described as follows. One hundred μL of culture medium containing 30,000 cells are seeded to each well of a 96-well BioCoat poly-D-lysine plate (Becton Dickson) and cultured at 37° C. overnight. The culture medium is aspirated and cells are washed twice with 200 μL of Reaction Buffer (140 mM NaCl, 2 mM KCl, 1 mM CaCl2, MgCl2, and 14 mM N-2-hydroethylpiperrazine-N′-2-ethanesulfonic acid (Hepes), pH 7.5). The excess buffer is tapped out onto paper towels. Thirty-five μL of Reaction Buffer are added to each well. […] After mixing, the scintillation signal in the plate is counted in a MicroBeta (PerkinElmer). […]

Test [2] deals with C57Bl/6 mice. Briefly: Glucose lowering effects in oral glucose tolerance test (OGTT). Further details: Baseline Adjusted AUC (glucose): unit not given here. The conditions noted are these: for Glucose 20 Minute / Glucose 40 Minute / Glucose 60 Minute / Baseline Adjusted AUC (glucose) / Glucose Cmax / Glucose Tmax / Glucose 0 Minute: 10 mg/kg oral, Mean ± SEM; for Glucose 20 Minute: 20 min after 3 g/kg dextrose; for Glucose 40 Minute: 40 min after 3 g/kg dextrose; for Glucose 60 Minute: 60 min after 3 g/kg dextrose; for Glucose 0 Minute: baseline before 3 g/kg dextrose. It counts as in vivo, mouse. The procedure:
The test compound is formulated by adding a vehicle of 1% hydroxyethylcellulose, 0.25% Tween® 80 w/antifoam 0.05% to preweighed test compound to make a 1 mg/ml solution. The mixture is probe sonicated for approximately 1 minute. A stir bar is added, and the resulting suspension is stirred continuously throughout dosing.
The first set of mice receiving an OGTT 18 hours after compound administration, the second 8 hours after compound administration. The first set of animals are weighed and body weights used to determine study groups (n=5), within a working range of 26-30 g. After grouping, the mice are orally gavaged with 10 ml/kg of test compound preparation or vehicle, thirty seconds apart. […] Both sets, 18 and 8 hour OGTT, of mice are then fasted overnight by removing access to food, late afternoon before test day. The following morning, the 8 hour OGTT mice are weighed and bled (via tail snip) for glucose. Study groups (n=5) are determine using fasted glucose values, within a working range of 80-100 mg/dl. After grouping the mice are orally gavaged with compound, thirty seconds apart. These mice then receive an OGTT 8 hours after compound administration.
At eight and eighteen hours after each respective compound treatment is started, a baseline blood sample is taken for measuring glucose (from the first animal). The animal is then immediately given an oral dose of 50% dextrose (Hospira®) at 3 g/kg. Blood samples are taken for glucose, exactly thirty seconds apart, by tail vein so that blood is collected in each animal at 20, 40, and 60 minutes after the dextrose dose.

Test [3] concerns the target T2, human SGLT1 (Homo sapiens, UniProt P13866).
T2 construct: expressed in transfected cells
T2 sequence (P13866 1-664): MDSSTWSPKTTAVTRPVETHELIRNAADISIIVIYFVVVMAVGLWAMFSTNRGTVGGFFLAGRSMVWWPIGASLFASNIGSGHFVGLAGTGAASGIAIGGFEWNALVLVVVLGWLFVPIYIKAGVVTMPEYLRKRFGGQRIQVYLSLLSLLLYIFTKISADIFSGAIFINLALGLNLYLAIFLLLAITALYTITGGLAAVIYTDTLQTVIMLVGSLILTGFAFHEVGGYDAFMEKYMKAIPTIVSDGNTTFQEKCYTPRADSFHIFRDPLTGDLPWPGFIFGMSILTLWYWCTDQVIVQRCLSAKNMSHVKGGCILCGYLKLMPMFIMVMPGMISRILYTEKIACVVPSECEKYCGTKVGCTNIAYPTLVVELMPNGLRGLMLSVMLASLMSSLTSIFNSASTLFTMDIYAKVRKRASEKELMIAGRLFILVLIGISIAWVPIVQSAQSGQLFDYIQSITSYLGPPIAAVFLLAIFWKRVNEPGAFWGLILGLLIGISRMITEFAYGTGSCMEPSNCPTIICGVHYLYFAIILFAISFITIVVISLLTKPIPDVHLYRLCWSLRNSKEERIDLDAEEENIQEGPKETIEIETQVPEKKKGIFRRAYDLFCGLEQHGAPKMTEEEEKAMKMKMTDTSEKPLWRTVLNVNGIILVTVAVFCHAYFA
Briefly: Sodium-dependent 14C-AMG uptake assay in CHO-K1 cells expressing human SGLT1. It counts as cell-based. The conditions noted are these: n=5.
Description: as §1, §2

Turning to `Cc1cccc2c1c(Cc1ccc(OCCCN3CCCC4(CCN(C(=O)CNC(=O)NCC(C)C)CC4)C3)cc1)cn2[C@@H]1O[C@H](CO)[C@@H](O)[C@H](O)[C@H]1O` [Example 1, 1-isobutyl-3-[2-[4-[3-[4-[[4-methyl-1-[(2R,3R,4S,5S,6R)-3,4,5-trihydroxy-6-(hydroxymethyl)tetrahydropyran-2-yl]indol-3-yl]methyl]phenoxy]propyl]-4,9-diazaspiro[5.5]undecan-9-yl]-2-oxo-ethyl]urea], half-maximal inhibition in test [1] (IC50) required 14.9 ± 10.4 nM. Besides, in test [2] (OGTT 8 hrs post dose), the “Glucose 20 Minute” value came to 114 ± 3.36 mg/dL, the “Glucose 40 Minute” value turned out to be 131 ± 6.81 mg/dL, the “Glucose 60 Minute” value was 125.8 ± 7.52 mg/dL and the “Baseline Adjusted AUC (glucose)” value came out at 2370 ± 315. Moreover, in test [2] (OGTT 8 hrs post dose), the “Glucose Cmax” value came out at 132.9 ± 6.68 mg/dL, the “Glucose Tmax” value was 44 ± 7.48 min and the “Glucose 0 Minute” value came to 75.8 ± 2.48 mg/dL. In addition, in test [2] (OGTT 18 hrs post dose), the “Glucose 20 Minute” value is 121.4 ± 5.16 mg/dL, the “Glucose 40 Minute” value is 127 ± 9.78 mg/dL, the “Glucose 60 Minute” value turned out to be 125 ± 7.27 mg/dL and the “Baseline Adjusted AUC (glucose)” value came out at 2258 ± 252. Further, in test [2] (OGTT 18 hrs post dose), the “Glucose Cmax” value amounted to 134.2 ± 6.72 mg/dL, the “Glucose Tmax” value stood at 44 ± 7.48 min and the “Glucose 0 Minute” value is 79.2 ± 4.51 mg/dL. In addition, the “glucose excursion after oral bolus of 50% dextrose” value in test [2] (normal glycemic C57Bl/6 mouse, eight or eighteen hours after administration) is listed as “decrease”. Besides, the IC50 (usually the point on the concentration scale where inhibition reaches its midpoint) in test [3] was 35.2 ± 14.1 nM.
